{"source": "patent US6696621B2", "about": "“Selectable marker in plants” (Paradigm Genetics, Inc., priority 2001, dated 2004)", "key": {"[1]": {"system": "wildtype Arabidopsis thaliana", "experiment": "Dose response of clonNAT sprayed on wildtype Arabidopsis thaliana seedlings", "format": "in vivo", "conditions": "sprayed on three consecutive days with 0.005% Silwet L-77; assessed 36 hours after last spray", "description": "a) Dose response. The selection conditions for plants that are transgenic with the nrg gene are determined in a dose response experiment. From about 2000 to 3000 wildtype Arabidopsis thaliana seeds per pot are sown in 5″×5″ (13 cm×13 cm) soil pots. When the first true leaves of the seedlings have emerged after approximately 7 days, the seedlings are sprayed with a hand-held sprayer until all leaf material is completely wet on three consecutive days with a solution of 0.005% Silwet L-77 (50 ul/l) in water and variable concentrations of clonNAT (1, 5, 10, 20, 50, 100, 250, 500 mg/l). The results are assessed 36 hours after the last spray. A useful range of concentration of clonNAT for selection of transgenic Arabidopsis plants (as assessed as concentrations that kill non-transgenic Arabidopsis plants after applying the described sprayings) is determined within a range of about 20 to about 1000 mg/l or more, preferably about 200 mg/l or less."}, "[2]": {"system": "rice callus, derived from immature rice embryos of the variety TP309", "experiment": "Dose response of clonNAT on rice callus growth and survival", "format": "cell-based", "conditions": "26° C. in the dark", "description": "a) Dose response. For selection of transgenic calli based on resistance to clonNAT following Agrobacterium-mediated transformation of rice callus material, a dose response experiment is made to determine the concentration of clonNAT in callus growth medium in order to inhibit the growth of rice callus, or to kill the rice cells. Growth media (GM) used for rice callus comprise the following basic components: N6 salts (Duchefa) 3.95 g/l; B5 vitamins (Duchefa) 112 mg/l; proline (Duchefa) 500 mg/l; glutamine (Duchefa) 500 mg/l; casein hydrolysate (Duchefa) 500 mg/l. […]\nSeveral pieces of rice callus, derived from immature rice embryos of the variety TP309 (National Small Grain Collection, USDA, ARS, Aberdeen, Id.) are put on these plates, the plates are incubated at 26° C. in the dark, and survival of the embryos and proliferation of the embryo cells are observed every day. Based on the survival rate of the embryos on the media plates containing different concentrations of clonNAT, a useful concentration of clonNAT for selection of transgenic rice is determined to be within a range of about 20 to about 1000 mg/l or more, preferably about 200 mg/l or less. […]"}, "[3]": {"experiment": "Ability of NRG protein to impart resistance to nourseothricin", "conditions": "NRG protein with aspartate instead of glycine at position 70"}}, "data": [{"molecule": "2-[4-O-Carbamoyl-2-deoxy-2-(3,6-diaminohexan-amido)-B-D-gulopyranoslamino)-3,3a,5 ,6,7,7a-hexahydro-5-hydroxy-4H-imidazo[4,5-c]pyridin-4one dihydrogensulphate [clonNAT]", "values": [{"measurement": "preferred concentration of clonNAT for selection of transgenic Arabidopsis plants", "setting": "[1]", "value": "≤ 200", "unit": "mg/L"}, {"measurement": "preferred concentration of clonNAT for selection of transgenic rice", "setting": "[2]; callus growth medium plates, based on survival rate of embryos", "value": "≤ 200", "unit": "mg/L"}, {"measurement": "fate of embryo-derived rice callus on clonNAT-containing medium plates", "setting": "[2]; clonNAT 200 mg/l selection plates, after 4-5 weeks", "value": "died"}]}, {"molecule": "NRG protein: novel nourseothricin N-acetyltransferase, amino acid sequence of SEQ ID NO. 1; confers resistance to nourseothricin (protein, Novel protein conferring resistance to the antibiotic known as nourseothricin) MTTLDDTAYRYRTSVPGDAEAIEALDGSFTTDTVFRVTATGDGFTLREVPVDPPLTKVFPDDESDDESDDGEDGDPDSRTFVAYGDDGDLAGFVVVSYSGWNRRLTVEDIEVAPEHRGHGVGRALMGLATEFARERGAGHLWLEVTNVNAPAIHAYRRMGFTLCGLDTALYDGTASDGEQALYMSMPCP", "values": [{"measurement": "ability to impart resistance to the nourseothricin antibiotic", "setting": "[3]", "value": "retains the ability to impart resistance"}]}]}
